Data taken from US8030498B2, “Benzoylpyrazole compounds and herbicides containing them” (Ishihara Sangyo Kaisha, Ltd., priority 2005, dated 2011).

What was measured:
corn = test: Test Example 2: soil application on the day after sowing, growth inhibition rate, corn; format: in vivo, Zea mays L.; details: 250 g/ha active ingredient, observed on 19th to 24th day
Procedure, shortened: (§1)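 Upland soil pots sown with crop and weed seeds; next day wettable powder or emulsifiable concentrate at prescribed active-ingredient amounts, diluted to 500 L/ha water, sprayed onto soil. Growth inhibition scored visually 19–24 days later, 0 (as untreated) to 100% (complete kill).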

wheat (Triticum spp.) = test: Test Example 1: foliar treatment, growth inhibition rate, wheat; format: in vivo; details: visually observed 17th to 23rd day after application
Procedure, shortened: (§2)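 Potted upland soil; compounds as wettable powders or emulsifiable concentrates diluted in water at 500 L/ha plus 0.1 vol % spreader, foliar-sprayed at defined leaf stages (rice 1.0–2.5, wheat 1.7–3.4, corn 2.0–3.5, greenfoxtail 1.0–3.0). Growth inhibition (0–100%) scored visually 17–23 days after application.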

redroot pigweed = test: Test Example 2: soil application on the day after sowing, growth inhibition rate, redroot pigweed; format: in vivo, Amaranthus retroflexus L.; details: 250 g/ha active ingredient, observed on 19th to 24th day
Procedure, shortened: as §1

greenfoxtail = test: Test Example 2: soil application on the day after sowing, growth inhibition rate, greenfoxtail; format: in vivo, Setaria viridis L.; details: 250 g/ha active ingredient, observed on 19th to 24th day
Procedure, shortened: as §1

[1] = system: barnyardgrass (Echinochloa crus-galli L.); test: Test Example 1: foliar treatment, growth inhibition rate, barnyardgrass; format: in vivo; details: visually observed 17th to 23rd day after application
Procedure, shortened: (§3)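 Visual scoring of growth inhibition, 0% (untreated) to 100% (complete kill), on days 17–23 following post-emergence spray of formulated compound in water (500 L/ha, 0.1 vol % spreader); plants treated at set leaf stages, e.g. corn 2.0–3.5, wheat 1.7–3.4.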

crabgrass = test: Test Example 2: soil application on the day after sowing, growth inhibition rate, crabgrass; format: in vivo, Digitaria sanguinalis L.; details: 250 g/ha active ingredient, observed on 19th to 24th day
Procedure, shortened: as §1

[2] = system: prickly sida (Sida spinosa L.); test: Test Example 1: foliar treatment, growth inhibition rate, prickly sida; format: in vivo; details: visually observed 17th to 23rd day after application
Procedure, shortened: as §3

rice (Oryza sativa L.) = test: Test Example 1: foliar treatment, growth inhibition rate, rice; format: in vivo; details: visually observed 17th to 23rd day after application
Procedure, shortened: as §2

[3] = system: crabgrass (Digitaria sanguinalis L.); test: Test Example 1: foliar treatment, growth inhibition rate, crabgrass; format: in vivo; details: visually observed 17th to 23rd day after application
Procedure, shortened: as §3

[4] = system: redroot pigweed (Amaranthus retroflexus L.); test: Test Example 1: foliar treatment, growth inhibition rate, redroot pigweed; format: in vivo; details: visually observed 17th to 23rd day after application
Procedure, shortened: as §3

prickly sida = test: Test Example 2: soil application on the day after sowing, growth inhibition rate, prickly sida; format: in vivo, Sida spinosa L.; details: 250 g/ha active ingredient, observed on 19th to 24th day
Procedure, shortened: as §1

rice = test: Test Example 2: soil application on the day after sowing, growth inhibition rate, rice; format: in vivo, Oryza sativa L.; details: 250 g/ha active ingredient, observed on 19th to 24th day
Procedure, shortened: as §1

barnyardgrass = test: Test Example 2: soil application on the day after sowing, growth inhibition rate, barnyardgrass; format: in vivo, Echinochloa crus-galli L.; details: 250 g/ha active ingredient, observed on 19th to 24th day
Procedure, shortened: as §1

[5] = system: greenfoxtail (Setaria viridis L.); test: Test Example 1: foliar treatment, growth inhibition rate, greenfoxtail; format: in vivo; details: visually observed 17th to 23rd day after application
Procedure, shortened: as §2

[6] = system: soybean (Glycine max Merr.); test: Test Example 1: foliar treatment, growth inhibition rate, soybean; format: in vivo; details: visually observed 17th to 23rd day after application
Procedure, shortened: as §3

[7] = system: velvetleaf (Abutilon theophrasti MEDIC.); test: Test Example 1: foliar treatment, growth inhibition rate, velvetleaf; format: in vivo; details: visually observed 17th to 23rd day after application
Procedure, shortened: as §3

wheat = test: Test Example 2: soil application on the day after sowing, growth inhibition rate, wheat; format: in vivo, Triticum spp.; details: 250 g/ha active ingredient, observed on 19th to 24th day
Procedure, shortened: as §1

corn (Zea mays L.) = test: Test Example 1: foliar treatment, growth inhibition rate, corn; format: in vivo; details: visually observed 17th to 23rd day after application
Procedure, shortened: as §2

velvetleaf = test: Test Example 2: soil application on the day after sowing, growth inhibition rate, velvetleaf; format: in vivo, Abutilon theophrasti MEDIC.; details: 250 g/ha active ingredient, observed on 19th to 24th day
Procedure, shortened: as §1

soybean = test: Test Example 2: soil application on the day after sowing, growth inhibition rate, soybean; format: in vivo, Glycine max Merr.; details: 250 g/ha active ingredient, observed on 19th to 24th day
Procedure, shortened: as §1

SMILES | Growth inhibition rate (%) Corn (corn) | Growth inhibition rate (%) Wheat (wheat (Triticum spp.); 31 g/ha active ingredient) | Growth inhibition rate (%) redroot pigweed (redroot pigweed) | Growth inhibition rate (%) Greenfoxtail (greenfoxtail) | Growth inhibition rate (%) Barnyardgrass ([1]; 31 g/ha active ingredient) | Growth inhibition rate (%) Crabgrass (crabgrass) | Growth inhibition rate (%) Prickly sida ([2]; 31 g/ha active ingredient) | Growth inhibition rate (%) Rice (rice (Oryza sativa L.); 31 g/ha active ingredient) | Growth inhibition rate (%) Crabgrass ([3]; 31 g/ha active ingredient) | Growth inhibition rate (%) redroot pigweed ([4]; 31 g/ha active ingredient) | Growth inhibition rate (%) Prickly sida (prickly sida) | Growth inhibition rate (%) Rice (rice) | Growth inhibition rate (%) Barnyardgrass (barnyardgrass) | Growth inhibition rate (%) Greenfoxtail ([5]; 31 g/ha active ingredient) | Growth inhibition rate (%) Soybean ([6]; 31 g/ha active ingredient) | Growth inhibition rate (%) Velvetleaf ([7]; 31 g/ha active ingredient) | Growth inhibition rate (%) Wheat (wheat) | Growth inhibition rate (%) Corn (corn (Zea mays L.); 31 g/ha active ingredient) | Growth inhibition rate (%) Velvetleaf (velvetleaf) | Growth inhibition rate (%) Soybean (soybean) | also measured
CCn1ncc(C(=O)c2ccc(S(C)(=O)=O)c(OCCOC)c2C)c1OC(=O)SC(C)C [compound 208] | 0% | 0% | 100% | 100% | 95% | 100% | 40% | 80% | 100% | 100% | 30% | 98% | 100% | 100% | 100% | 95% | 0% | 0% | 50% | 0% | –
CCSC(=O)Oc1c(C(=O)c2ccc(S(C)(=O)=O)c(CN(C)CC#N)c2C)cnn1C [compound 210] | 0% | 0% | 20% | 0% | 80% | 10% | 70% | 50% | 30% | 10% | 40% | 0% | 0% | 50% | 50% | 60% | 0% | 0% | 0% | 0% | –
CCSC(=O)Oc1c(C(=O)c2ccc(S(C)(=O)=O)c(OCC3CCCO3)c2C)cnn1C (centres unmarked) [compound 211] | 0% | 0% | 100% | 60% | 70% | 98% | 20% | 50% | 70% | 90% | 70% | 50% | 60% | 70% | 98% | 90% | 0% | 20% | 40% | 0% | –
CCSC(=O)Oc1c(C(=O)c2ccc(S(C)(=O)=O)c(SC)c2Cl)cnn1C [compound 212] | 0% | – | 80% | 0% | – | 40% | – | – | – | – | 50% | 0% | 50% | – | – | – | 0% | – | 0% | 0% | Growth inhibition rate (%) Wheat (wheat (Triticum spp.); 63 g/ha active ingredient): 0%; Growth inhibition rate (%) Barnyardgrass ([1]; 63 g/ha active ingredient): 100%; Growth inhibition rate (%) Prickly sida ([2]; 63 g/ha active ingredient): 40%; Growth inhibition rate (%) Rice (rice (Oryza sativa L.); 63 g/ha active ingredient): 30%; Growth inhibition rate (%) Crabgrass ([3]; 63 g/ha active ingredient): 50%; Growth inhibition rate (%) redroot pigweed ([4]; 63 g/ha active ingredient): 100%; Growth inhibition rate (%) Greenfoxtail ([5]; 63 g/ha active ingredient): 60%; Growth inhibition rate (%) Soybean ([6]; 63 g/ha active ingredient): 90%; Growth inhibition rate (%) Velvetleaf ([7]; 63 g/ha active ingredient): 60%; Growth inhibition rate (%) Corn (corn (Zea mays L.); 63 g/ha active ingredient): 0%
CCSC(=O)Oc1c(C(=O)c2ccc(S(C)(=O)=O)c(OC)c2Cl)cnn1C [compound 214] | 0% | – | 90% | 100% | – | 100% | – | – | – | – | 90% | 100% | 100% | – | – | – | 0% | – | 90% | 20% | Growth inhibition rate (%) Wheat (wheat (Triticum spp.); 63 g/ha active ingredient): 0%; Growth inhibition rate (%) Barnyardgrass ([1]; 63 g/ha active ingredient): 98%; Growth inhibition rate (%) Prickly sida ([2]; 63 g/ha active ingredient): 70%; Growth inhibition rate (%) Rice (rice (Oryza sativa L.); 63 g/ha active ingredient): 90%; Growth inhibition rate (%) Crabgrass ([3]; 63 g/ha active ingredient): 95%; Growth inhibition rate (%) redroot pigweed ([4]; 63 g/ha active ingredient): 100%; Growth inhibition rate (%) Greenfoxtail ([5]; 63 g/ha active ingredient): 90%; Growth inhibition rate (%) Soybean ([6]; 63 g/ha active ingredient): 100%; Growth inhibition rate (%) Velvetleaf ([7]; 63 g/ha active ingredient): 80%; Growth inhibition rate (%) Corn (corn (Zea mays L.); 63 g/ha active ingredient): 0%
CCSC(=O)Oc1c(C(=O)c2ccc(S(C)(=O)=O)c(OCCOC)c2Cl)cnn1C [compound 216] | 0% | 0% | 100% | 100% | 100% | 100% | 50% | 70% | 100% | 100% | 80% | 80% | 95% | 98% | 95% | 98% | 0% | 10% | 90% | 0% | –
CCSC(=O)Oc1c(C(=O)c2ccc(S(C)(=O)=O)c(OC3CCOC3)c2C)cnn1C (centres unmarked) [compound 217] | 0% | 40% | 95% | 60% | 100% | 95% | 70% | 90% | 100% | 100% | 60% | 80% | 80% | 98% | 98% | 80% | 0% | 0% | 20% | 0% | –
